Data set [1] has as its system PKC. The data set is described as follows: Inhibition of cellular PAH uptake in PKC. Conditions: 50 μM PAH, inhibitor 1 mM, 10 min; for Reduction of PAH BBM uptake: Figure 3A.
Protocol: For transport studies, PKC were seeded (1 × 10^5 cells/cm^2) on 6-well PET filter inserts with 0.4 μm pore size. The use of filter inserts allows measurement of transport across the BLM (basolateral membrane) and the BBM (brushborder membrane) by addition of substrates to media in the lower and upper compartment, respectively. […] The cells were incubated at 37°C for the indicated times. […] Thereafter, cells were acidified with 1 M HCl and an aliquot was used for protein determination using the Bradford assay. 1 ml of medium from each compartment and of solubilized cells was placed into 10 ml scintillation cocktail and radioactivity was measured in a Beckman LS 6500 scintillation counter.
Another data set relates to Oat1 or Oat3. Nature of the data set: Transporter induction experiments (RT-PCR of transporter mRNA in PKC). The class given is cell-based, porcine. As to the method: For transporter induction experiments, freshly isolated PKC cells were seeded (total of 2 × 10^4 cells cm^-2) on 6-well ThinCert PET tissue culture inserts in standard culture medium and medium was changed every 48 hours. […] After 48 hours of exposure, samples for RNA extraction were prepared by standard trypsin-EDTA treatment followed by washing with PBS. Resulting cell pellets were snap-frozen and stored at -80°C until use.
Total RNA was prepared from cell pellets and minced pieces of tissue (rat kidney and porcine kidney cortex) via the phenol-chloroform method using Trizol (Invitrogen, Karlsruhe, Germany). Concentration and quality was estimated via 260/280 nm values. Representative samples were tested for RNA integrity via denaturing electrophoresis. cDNA was prepared using 1 μg total RNA, Oligo (dT)18 and M-MuLV reverse transcriptase according to manufacturer’s instructions. PCR was performed using 2 μl cDNA sample, 2 × PCR Master Mix, specific primers (Table 3). Amplification was performed with an initial denaturation step at 92°C for 3 min followed by 30 cycles of 94°C for 60 sec, 58°C for 60 sec and 72°C for 60 sec and a final extension step at 72°C for 7 min.

Data set [2] concerns primary porcine kidney cells (PKC). The data set is described as follows: MTT reduction cytotoxicity assay in PKC. Conditions: for EC50: read-out: EC50 (cytotoxicity), 1-500 μM, positive control. The method, then:
Cytotoxicity experiments using the MTT reduction assay as previously described, were conducted to estimate non-toxic concentrations for subsequent analyses. All chemicals and stock solutions (Tables 1 and 2) were sterilized by filtration (0.2 μm) prior to testing. […] Absorbance was read at 550 nm using a microplate reader (Infinite M200, Tecan, Crailsheim, Germany).
Conversely, in the transport induction experiments (prolonged substrate exposure/low concentrations, Table 2) cytotoxicity was determined after 24, 48, 72 and 96 hours of exposure. All assays were performed with the respective vehicle controls (Tables 1 and 2) and cadmium chloride as positive control.
Cytotoxicity data were calculated as means ± SEM from at least three independent replicate experiments conducted in technical duplicates, followed by a One-way ANOVA with a subsequent Dunnett’s multiple comparison test (P < 0.05).

For a further data set, the system named is pOat3. The conditions noted are these: cited from earlier work; for Inhibitory effect on pOat3-mediated ES transport: oocytes.
A further data set deals with hOAT3. Conditions: cited from earlier work.
For a further data set, the system named is OAT3 (SLC22A8). The arrangement: method as in supplement 1. Conditions: Rat, cited from earlier work.
Another data set deals with pOat1. The conditions noted are these: cited from earlier work; for Inhibition of pOat1-mediated PAH uptake: oocytes.
In another data set the test system is hOAT4. Conditions: hOAT4, MTX; cited from earlier work.
Data set [3] has as its system PKC. The data set is described as follows: Transport assays (kinetics): cellular uptake of radiolabelled PAH and MTX across BBM and BLM of PKC on filter inserts. Conditions: for Km: confluent PKC, 30 min incubation, mean ± SEM, n = 3. Format: in vitro ADME, porcine. The method, then:
For transport studies, tightness of the cellular monolayers was inspected microscopically before use. Additionally, radiolabelled substrates were measured in the both chambers (above and below the cell layer) to determine cell layer leakiness. In case of lacking or reduced tightness of the monolayer, very high counts (dpm) were measured in the respective opposite compartment. These resulting counts (dpm) were several-magnitudes greater than those that could have been expected from potential transepithelial transport. Data from cell preparations with such apparent cell layer leakiness were omitted from calculation.
For kinetic data, raw transport data (dpm) were submitted to intra-assay normalization using the blanks described above and calculated using the following equation:
meandpm×totalvolume/countedvolume×60sec×specificactivity×proteincontent×assaytime=substratepmol/mg×min

Data set [4] relates to primary human proximal tubular cells. Also on record: method as in PMID 16997449. The conditions noted are these: cited from earlier work.
The next data set deals with hMRP4. The conditions noted are these: hMRP4, MTX; cited from earlier work.
In the next data set the test system is hOAT1. The conditions noted are these: hOAT1, MTX; cited from earlier work.
[5] abbreviates: PKC, 50 nM or 1 μM to basolateral compartment, 48 hours, RT-PCR.

Counter-ions that a name gives are not always drawn. Like-named read-outs stand apart in the source and are kept apart here.

Turning to `O=C1OC(c2ccc(O)c(S(=O)(=O)O)c2)(c2ccc(O)c(S(=O)(=O)O)c2)c2c(Br)c(Br)c(Br)c(Br)c21` [bromosulphophthalein], the “Reduction of PAH BBM uptake” value in the data set on PKC [1] is given as “up to 30%”. The “Stimulatory effect on transporter mRNA expression” value (“Stimulatory effect” for short) in the data set with Oat1 or Oat3 (setting [5]) was “none of the tested substances showed any stimulatory effect”.
As for `[Cl][Cd][Cl]` [cadmium chloride], the “Cytotoxicity on longer exposure” value in [2] (PKC, MTT, exposure >48 hours (data not shown)) is on record as “did not result in further increased cytotoxicity”. The EC50 in data set [2] (PKC, MTT, 24 hours of exposure) turned out to be 103 µM; in data set [2] (PKC, MTT, 48 hours of exposure) it was 57.2 µM.
As for `C[C@]12CC[C@H](OS(=O)(=O)O)CC1=CC[C@@H]1[C@@H]2CC[C@]2(C)C(=O)CC[C@@H]12` [dehydroepi-androsteron sulfate], the “Stimulatory effect” value in the data set on Oat1 or Oat3 (setting [5]) is “none of the tested substances showed any stimulatory effect”. The “Inhibitory effect on pOat3-mediated ES transport” value (“Inhibitory effect” for short) in the data set with pOat3 is given as “inhibitory effect”.
Turning to `C[C@]12CC[C@@H]3c4ccc(OS(=O)(=O)O)cc4CC[C@H]3[C@@H]1CCC2=O` [estrone sulfate], the “Inhibition of PAH uptake from either direction (BBM or BLM)” value with PKC [1] was “not able to inhibit PAH uptake”. Moreover, the Km in the data set with hOAT3 (hOAT3, ES, read-out: Km) was 3.1 to 9.5 µM; in the data set with pOat3 (pOat3 expressed in X. laevis oocytes, read-out: apparent Km), 7.8 ± 1.3 µM; in the data set on OAT3 (SLC22A8) (ref supplement 1, read-out: KM (ES)), 2.3 to 5.3 µM.
Regarding `O=C(O)CCCC(=O)O` [glutarate], in the data set with pOat1 (0.5 mM), the “Inhibition of pOat1-mediated PAH uptake” value is “could be inhibited”. In addition, the “Inhibitory effect” value in the data set on pOat3 is reported as “inhibitory effect”.
`CN(Cc1cnc2nc(N)nc(N)c2n1)c1ccc(C(=O)N[C@@H](CCC(=O)O)C(=O)O)cc1` [methotrexate]: the Michaelis constant (Km) with hOAT4 is 17.8 µM; in [4] (human kidney cells (HKC), hOAT1-associated, read-out: Km of MTX transport across the BBM), 80.4 ± 3.4 µM; in [4] (human kidney cells (HKC), hOAT1-associated, read-out: Km of MTX transport across the BLM), 28.5 ± 1.1 µM; in the data set with hOAT3 (hOAT3, MTX, read-out: Km), 10.9 to 21.1 µM; with hMRP4 it was 220 to 1300 µM; in the data set with hOAT1, 554 to 724 µM. Also, the “Reduction of PAH BBM uptake” value in the data set with PKC [1] is given as “up to 30%”. Also, in the data set on PKC [3] (PKC, radiolabelled substrate), the Cellular uptake entry is given as “negligible”.
As to `C[C@@H]1Cc2c(Cl)cc(C(=O)N[C@@H](Cc3ccccc3)C(=O)O)c(O)c2C(=O)O1` [ochratoxin A], in the data set with PKC [1], the “Reduction of PAH BBM uptake” value was “up to 30%”.
In the case of `Nc1ccc(C(=O)NCC(=O)O)cc1` [p-aminohippuric acid], the Km in the data set with pOat1 (OAT1 (SLC22A6), Pig, ref supplement 1, 2, read-out: KM (PAH)) was 3.7 µM; in the data set with pOat1 (pOat1 variant expressed in Xenopus laevis oocytes, read-out: apparent Km), 3.75 ± 1.6 µM; in the data set with PKC [3] (basolateral membrane, read-out: Km of PAH uptake across BLM), 187 ± 70.2 µM; with PKC [3] (brushborder membrane, read-out: Km of PAH uptake across BBM), 58.8 ± 12.6 µM; in data set [4] (primary human proximal tubular cells, read-out: BBM Km of PAH uptake) it was 36.6 ± 1.2 µM; in data set [4] (primary human proximal tubular cells, read-out: BLM Km of PAH uptake) it was 57.5 ± 4.1 µM. Also, the Km is 50 to 100 µM with hOAT3 (OAT3 (SLC22A8), Human, ref supplement 1, read-out: KM (PAH)) and 60 to 65 µM with OAT3 (SLC22A8) (ref supplement 1, read-out: KM (PAH)). In the data set on pOat1 (one pOat1 splice variant expressed in Xenopus laevis oocytes), the “Affinity of the other pOat1 variant” value is on record as “did not show any affinity”. In the data set on PKC [3] (PKC, 50 μM substrate, Figure 2B), the “Time to saturation of PAH uptake” value was in the range of 5 to 10 min. Besides, the “BBM uptake compared to BLM uptake” value with PKC [3] (PKC, PAH uptake, Figure 2A) is “about 3 times”.
In the case of `CCCN(CCC)S(=O)(=O)c1ccc(C(=O)O)cc1` [probenecid], the “Inhibition of pOat1-mediated PAH uptake” value in the data set on pOat1 (1 mM) is on record as “could be inhibited”. In the data set on PKC [1], the “Inhibition of PAH uptake from either direction (BBM or BLM)” value is given as “did not show any inhibitory effect”. The “Inhibitory effect” value with pOat3 is on record as “inhibitory effect”.
Regarding `C[C@H](CCC(=O)NCCS(=O)(=O)O)[C@H]1CC[C@H]2[C@@H]3[C@H](O)C[C@@H]4C[C@H](O)CC[C@]4(C)[C@H]3C[C@H](O)[C@]12C` [taurocholic acid], the “Significant effects (cytotoxicity of potential transporter inducers)” value in data set [2] is on record as “no”. Moreover, the “Stimulatory effect” value in the data set on Oat1 or Oat3 was “none of the tested substances showed any stimulatory effect”.
With `N[C@@H](Cc1cc(I)c(Oc2ccc(O)c(I)c2)c(I)c1)C(=O)O` [triiodothyronine], in the data set on Oat1 or Oat3 (setting [5]), the “Stimulatory effect” value is “none of the tested substances showed any stimulatory effect”.

Values taken from paper PMC4234457, “Primary porcine proximal tubular cells as an alternative to human primary renal cells in vitro: an initial characterization” (BMC Cell Biology, 2013).
